Experimental data from patent publication US20240018128A1, “PESTICIDALLY ACTIVE HETEROCYCLIC DERIVATIVES WITH SULFUR CONTAINING SUBSTITUENTS” (SYNGENTA CROP PROTECTION AG, priority 2020, published 2024).

Columns and labels:
Format in all cases: in vivo
[1] = test system: Plutella xylostella (diamond back moth); assay: Example B5: Activity against Plutella xylostella (diamond back moth); conditions: 192 h, application rate 200 ppm, artificial diet treated by pipetting, eggs, 8 days after infestation, read-out: effect in at least one of the two categories (mortality or growth inhibition)
Method: Example B5: Activity Against Plutella xylostella (Diamond Back Moth)
24-well microtiter plates with artificial diet were treated with aqueous test solutions prepared from 10,000 ppm DMSO stock solutions by pipetting. After drying, Plutella eggs were pipetted through a plastic stencil onto a gel blotting paper and the plate was closed with it. The samples were assessed for mortality and growth inhibition in comparison to untreated samples 8 days after infestation. The following compounds gave an effect of at least 80% in at least one of the two categories (mortality or growth inhibition) at an application rate of 200 ppm: P1, P2, P4, P5, P6, P7, P9, P10, P11, P12, P13, P14, P15, P16, P17, P18.

[2] = test system: Spodoptera littoralis (Egyptian cotton leaf worm); assay: Example B6: Activity against Spodoptera littoralis (Egyptian cotton leaf worm); conditions: foliar, 72 h, application rate 200 ppm, cotton leaf discs sprayed, L1 larvae, 3 days after infestation, read-out: control (mortality, anti-feeding effect or growth inhibition)
Method: Example B6: Activity Against Spodoptera littoralis (Egyptian Cotton Leaf Worm)
Cotton leaf discs were placed onto agar in 24-well microtiter plates and sprayed with aqueous test solutions prepared from 10,000 ppm DMSO stock solutions. After drying the leaf discs were infested with five L1 larvae. The samples were assessed for mortality, anti-feeding effect, and growth inhibition in comparison to untreated samples 3 days after infestation. Control of Spodoptera littoralis by a test sample is given when at least one of the categories mortality, anti-feedant effect, and growth inhibition is higher than the untreated sample.

[3] = test system: Chilo suppressalis (striped rice stemborer); assay: Example B8: Activity against Chilo suppressalis (striped rice stemborer); conditions: 144 h, application rate 200 ppm, artificial diet treated by pipetting, L2 larvae, 6 days after infestation, read-out: control (mortality, anti-feeding effect or growth inhibition)
Method: Example B8: Activity Against Chilo suppressalis (Striped Rice Stemborer)
24-well microtiter plates with artificial diet were treated with aqueous test solutions prepared from 10,000 ppm DMSO stock solutions by pipetting. After drying, the plates were infested with L2 larvae (6-8 per well). The samples were assessed for mortality, anti-feeding effect, and growth inhibition in comparison to untreated samples 6 days after infestation. Control of Chilo suppressalis by a test sample is given when at least one of the categories mortality, anti-feedant effect, and growth inhibition is higher than the untreated sample.

[4] = test system: Euschistus heros (neotropical brown stink bug); assay: Example B2: Activity against Euschistus heros (neotropical brown stink bug); conditions: 120 h, application rate 200 ppm, soybean leaves sprayed, N2 nymphs, 5 days after infestation, read-out: effect in at least one of the two categories (mortality or growth inhibition)
Method: Example B2: Activity Against Euschistus heros (Neotropical Brown Stink Bug)
Soybean leaves on agar in 24-well microtiter plates were sprayed with aqueous test solutions prepared from 10,000 ppm DMSO stock solutions. After drying the leaves were infested with N2 nymphs. The samples were assessed for mortality and growth inhibition in comparison to untreated samples 5 days after infestation.

[5] = test system: Myzus persicae (green peach aphid); assay: Example B4: Activity against Myzus persicae (green peach aphid), feeding/contact activity; conditions: foliar, 144 h, application rate 200 ppm, sunflower leaf discs sprayed, aphid population of mixed ages, 6 days after infestation
Method: Example B4: Activity Against Myzus persicae (Green Peach Aphid) Feeding/Contact Activity
Sunflower leaf discs were placed onto agar in a 24-well microtiter plate and sprayed with aqueous test solutions prepared from 10,000 ppm DMSO stock solutions. After drying, the leaf discs were infested with an aphid population of mixed ages. The samples were assessed for mortality 6 days after infestation.

[6] = test system: Myzus persicae (green peach aphid); assay: Example B9: Activity against Myzus persicae (green peach aphid), systemic activity; conditions: 144 h, test rate 24 ppm, roots of infested pea seedlings placed into test solution, 6 days
Method: Example B9: Activity Against Myzus persicae (Green Peach Aphid). Systemic Activity
Roots of pea seedlings infested with an aphid population of mixed ages were placed directly into aqueous test solutions prepared from 10,000 DMSO stock solutions. The samples were assessed for mortality 6 days after placing seedlings into test solutions.

[7] = test system: Diabrotica balteata (corn root worm); assay: Example B1: Activity against Diabrotica balteata (corn root worm); conditions: 96 h, application rate 200 ppm, maize sprouts sprayed, L2 larvae, 4 days after infestation, read-out: effect in at least one of the two categories (mortality or growth inhibition)
Method: Example B1: Activity Against Diabrotica Balteata (Corn Root Worm)
Maize sprouts placed onto an agar layer in 24-well microtiter plates were treated with aqueous test solutions prepared from 10,000 ppm DMSO stock solutions by spraying. After drying, the plates were infested with L2 larvae (6 to 10 per well). The samples were assessed for mortality and growth inhibition in comparison to untreated samples 4 days after infestation.

CCS(=O)(=O)c1c(N2Cc3ccc(OC(F)(F)F)cc3C2=O)nc(-c2cncnc2)n1C [Compound P7, 2-(5-ethylsulfonyl-1-methyl-2-pyrimidin-5-yl-imidazol-4-yl)-6-(trifluoromethoxy)isoindolin-1-one]
≥ 80%: effect (mortality or growth inhibition) at 200 ppm [1] | control at 200 ppm [2] | control at 200 ppm [3]

CCS(=O)(=O)c1c(N2Cc3ncc(C(F)(F)F)cc3C2=O)nc(-c2cnn(CC(F)F)c2)n1C [Compound P5, 6-[2-[1-(2,2-difluoroethyl)pyrazol-4-yl]-5-ethylsulfonyl-1-methyl-imidazol-4-yl]-3-(trifluoromethyl)-7H-pyrrolo[3,4-b]pyridin-5-one]
≥ 80%: percent effect (mortality or growth inhibition) at 200 ppm [4] | mortality at 200 ppm [5] | effect (mortality or growth inhibition) at 200 ppm [1] | control at 200 ppm [2] | control at 200 ppm [3] | mortality at 24 ppm [6]

CCS(=O)(=O)c1c(N2Cc3ncc(C(F)(F)F)cc3C2=O)nc(-c2ccc(C3(C#N)CC3)cc2)n1C [Compound P18, 1-[4-[5-ethylsulfonyl-1-methyl-4-[5-oxo-3-(trifluoromethyl)-7H-pyrrolo[3,4-b]pyridin-6-yl]imidazol-2-yl]phenyl]cyclopropane-carbonitrile]
≥ 80%: mortality or growth inhibition at 200 ppm [7] | mortality at 200 ppm [5] | effect (mortality or growth inhibition) at 200 ppm [1] | control at 200 ppm [2] | control at 200 ppm [3]

CCS(=O)(=O)c1c(N2Cc3ncc(C(F)(F)F)cc3C2=O)nc(-n2ccc(C3CC3)n2)n1C [Compound P15, 6-[2-(3-cyclopropylpyrazol-1-yl)-5-ethylsulfonyl-1-methyl-imidazol-4-yl]-3-(trifluoromethyl)-7H-pyrrolo[3,4-b]pyridin-5-one]
≥ 80%: mortality or growth inhibition at 200 ppm [7] | percent effect (mortality or growth inhibition) at 200 ppm [4] | mortality at 200 ppm [5] | effect (mortality or growth inhibition) at 200 ppm [1] | control at 200 ppm [2]

CCS(=O)(=O)c1c(N2Cc3ncc(C(F)(F)F)cc3C2=O)nc(-c2cnn(CC(F)(F)F)c2)n1C [Compound P10, 6-[5-ethylsulfonyl-1-methyl-2-[1-(2,2,2-trifluoroethyl)pyrazol-4-yl]imidazol-4-yl]-3-(trifluoromethyl)-7H-pyrrolo[3,4-b]pyridin-5-one]
≥ 80%: mortality or growth inhibition at 200 ppm [7] | percent effect (mortality or growth inhibition) at 200 ppm [4] | mortality at 200 ppm [5] | effect (mortality or growth inhibition) at 200 ppm [1] | control at 200 ppm [2] | control at 200 ppm [3] | mortality at 24 ppm [6]

CCS(=O)(=O)c1c(N2Cc3ncc(C(F)(F)F)cc3C2=O)nc(C2CC(C3CC3)=NO2)n1C (stereo not shown) [Compound P3, 6-[2-(3-cyclopropyl-4,5-dihydroisoxazol-5-yl)-5-ethylsulfonyl-1-methyl-imidazol-4-yl]-3-(trifluoromethyl)-7H-pyrrolo[3,4-b]pyridin-5-one]
≥ 80%: control at 200 ppm [3]

CCS(=O)(=O)c1c(N2Cc3ncc(C(F)(F)F)cc3C2=O)nc(-c2cnn(C3CC3)c2)n1C [Compound P2, 6-[2-(1-cyclopropylpyrazol-4-yl)-5-ethylsulfonyl-1-methyl-imidazol-4-yl]-3-(trifluoromethyl)-7H-pyrrolo[3,4-b]pyridin-5-one]
≥ 80%: mortality or growth inhibition at 200 ppm [7] | percent effect (mortality or growth inhibition) at 200 ppm [4] | mortality at 200 ppm [5] | effect (mortality or growth inhibition) at 200 ppm [1] | control at 200 ppm [2] | control at 200 ppm [3] | mortality at 24 ppm [6]

CCS(=O)(=O)c1c(N2Cc3ncc(C(F)(F)F)cc3C2=O)nc(-c2cncnc2)n1C [Compound P8, 6-(5-ethylsulfonyl-1-methyl-2-pyrimidin-5-yl-imidazol-4-yl)-3-(trifluoromethyl)-7H-pyrrolo[3,4-b]pyridin-5-one]
≥ 80%: mortality at 24 ppm [6]

CCS(=O)(=O)c1c(N2Cc3ncc(C(F)(F)F)cc3C2=O)nc(-n2ccc(Cl)n2)n1C [Compound P16, 6-[2-(3-chloropyrazol-1-yl)-5-ethylsulfonyl-1-methyl-imidazol-4-yl]-3-(trifluoromethyl)-7H-pyrrolo[3,4-b]pyridin-5-one]
≥ 80%: mortality or growth inhibition at 200 ppm [7] | percent effect (mortality or growth inhibition) at 200 ppm [4] | mortality at 200 ppm [5] | effect (mortality or growth inhibition) at 200 ppm [1] | control at 200 ppm [2] | control at 200 ppm [3]

CCS(=O)(=O)c1c(N2Cc3ncc(C(F)(F)F)cc3C2=O)nc(-n2cc(C(F)(F)F)cn2)n1C [Compound P14, 6-[5-ethylsulfonyl-1-methyl-2-[4-(trifluoromethyl)pyrazol-1-yl]imidazol-4-yl]-3-(trifluoromethyl)-7H-pyrrolo[3,4-b]pyridin-5-one]
≥ 80%: mortality or growth inhibition at 200 ppm [7] | percent effect (mortality or growth inhibition) at 200 ppm [4] | mortality at 200 ppm [5] | effect (mortality or growth inhibition) at 200 ppm [1] | control at 200 ppm [2] | control at 200 ppm [3]

CCS(=O)(=O)c1c(N2Cc3ncc(C(F)(F)F)cc3C2=O)nc(OCC(F)(F)F)n1C [Compound P6, 6-[5-ethylsulfonyl-1-methyl-2-(2,2,2-trifluoroethoxy)imidazol-4-yl]-3-(trifluoromethyl)-7H-pyrrolo[3,4-b]pyridin-5-one]
≥ 80%: mortality or growth inhibition at 200 ppm [7] | mortality at 200 ppm [5] | effect (mortality or growth inhibition) at 200 ppm [1] | control at 200 ppm [2] | control at 200 ppm [3] | mortality at 24 ppm [6]

CCS(=O)(=O)c1c(N2Cc3ccc(OC(F)(F)F)cc3C2=O)nc(-c2ncccn2)n1C [Compound P11, 2-(5-ethylsulfonyl-1-methyl-2-pyrimidin-2-yl-imidazol-4-yl)-6-(trifluoromethoxy)isoindolin-1-one]
≥ 80%: mortality or growth inhibition at 200 ppm [7] | percent effect (mortality or growth inhibition) at 200 ppm [4] | mortality at 200 ppm [5] | effect (mortality or growth inhibition) at 200 ppm [1] | control at 200 ppm [3] | mortality at 24 ppm [6]

CCS(=O)(=O)c1c(N2Cc3ncc(C(F)(F)F)cc3C2=O)nc(-c2cnn(CC3(C#N)CC3)c2)n1C [Compound P4, 1-[[4-[5-ethylsulfonyl-1-methyl-4-[5-oxo-3-(trifluoromethyl)-7H-pyrrolo[3,4-b]pyridin-6-yl]imidazol-2-yl]pyrazol-1-yl]methyl]cyclopropane-carbonitrile]
≥ 80%: percent effect (mortality or growth inhibition) at 200 ppm [4] | mortality at 200 ppm [5] | effect (mortality or growth inhibition) at 200 ppm [1] | control at 200 ppm [3] | mortality at 24 ppm [6]

CCS(=O)(=O)c1c(N2Cc3ncc(C(F)(F)F)cc3C2=O)nc(-c2ncccn2)n1C [Compound P12, 6-(5-ethylsulfonyl-1-methyl-2-pyrimidin-2-yl-imidazol-4-yl)-3-(trifluoromethyl)-7H-pyrrolo[3,4-b]pyridin-5-one]
≥ 80%: mortality or growth inhibition at 200 ppm [7] | percent effect (mortality or growth inhibition) at 200 ppm [4] | mortality at 200 ppm [5] | effect (mortality or growth inhibition) at 200 ppm [1] | control at 200 ppm [3] | mortality at 24 ppm [6]
